According to EPA's ToxValDB 9.5 (doi:10.2903/j.efsa.2010.1558):
Converted amounts (≈) assume the structure as drawn.

Columns and labels:
Lepomis macrochirus = settings: acute; duration: 96 hours; mortality
Canidae = settings: chronic; duration: 1 years; oral; Dog Other; body weight
Typhlodromus pyri = settings: acute; duration: 14 days; reproduction
Daphnia magna = settings: chronic/long-term; duration: 21 days; mobility
Tagia sp. = settings: acute; duration: 14 days; mortality
Pimephales promelas = settings: chronic/long-term; duration: 33 days; growth
Rattus norvegicus = settings: for NOAEL: reproduction developmental
Anas platyrhynchos = settings: reproductive
Colinus virginianus = settings: oral
Apis mellifera = settings: acute, duration: 48 hours, mortality

N#CC(CCc1ccc(Cl)cc1)(Cn1cncn1)c1ccccc1 (centres undefined)
LC50 (Lepomis macrochirus): 0.68 µg/mL (≈ 2.02 µM) | NOAEL (Canidae): 0.62 mg/kg-day | LEL (Typhlodromus pyri): 63 g/ha | NOEC (Daphnia magna): 0.078 mg/L | LC50 (Tagia sp.): > 100 mg/kg | NOEC (Pimephales promelas): 0.023 mg/L | LD50 (Rattus norvegicus; acute, oral, mortality): > 5000 mg/kg-day | NOAEL (Rattus norvegicus; body weight): 30 mg/kg-day | NOAEL (Rattus norvegicus; reproduction): 5 mg/kg-day | NOEC (Anas platyrhynchos): 21 mg/kg-day | LD50 (Colinus virginianus; acute, mortality): > 2150 mg/kg-day | NOEL (Colinus virginianus; short-term, diet, food consumption): 111 mg/kg-day | LD50 (Apis mellifera; dermal): > 5.5 µg/piece | LD50 (Apis mellifera; oral, unspecified): > 5.2 µg/piece
